In patent US7378415B2, “Benzoxazine and quinoxaline derivatives and uses thereof” (Roche Palo Alto LLC, priority 2004, dated 2008):
Where a name gives a salt, the structure may show the parent alone.

Columns and labels:
[1] = biological target: T1, recombinant human 5-HT2A receptor (Homo sapiens, UniProt P28223); assay: Radioligand binding, [3H]Ketanserin competition in CHO-K1 cell membranes; conditions: [3H]Ketanserin displacement, pH 7.4, 32° C., read-out: pKi for the 5-HT2A receptor (converted)
T1 construct: expressed in transfected cells
Method: (§1) The binding activity of compounds of this invention in vitro was determined as follows. Duplicate determinations of 5-HT6 ligand affinity were made by competing for binding of [^3H]LSD in cell membranes derived from HEK293 cells stably expressing recombinant human 5-HT6 receptor. Duplicate determinations of 5-HT2A ligand affinity were made by competing for binding of [^3H]Ketanserin (3-(2-(4-(4-fluorobenzoyl)piperidinol)ethyl)-2,4(1H,3H)-quinazolinedione) in cell membranes derived from CHO-K1 cells stably expressing recombinant human 5-HT2A receptor.
(§2) Assay tubes containing [^3H] LSD or [^3H]Ketanserin (5 nM), competing ligand, and membrane were incubated in a shaking water bath for 75 min. at 37° C. (for 5-HT6) or 60 min. at 32° C. (for 5-HT2A), filtered onto Packard GF-B plates (pre-soaked with 0.3% PEI) using a Packard 96 well cell harvester and washed 3 times in ice cold 50 mM Tris-HCl. Bound [^3H] LSD or [^3H]Ketanserin were determined as radioactive counts per minute using Packard TopCount.
(§3) Displacement of [^3H]LSD or [^3H]Ketanserin from the binding sites was quantified by fitting concentration-binding data to a 4-parameter logistic equation:
(§4) [formula] where Hill is the Hill slope, [ligand] is the concentration of competing radioligand and IC50 is the concentration of radioligand producing half-maximal specific binding of radioligand. […]

[2] = biological target: T2, recombinant human 5-HT6 receptor (Homo sapiens, UniProt P50406); assay: Radioligand binding, [3H]LSD competition in HEK293 cell membranes; conditions: [3H]LSD displacement, pH 7.4, 37° C., read-out: pKi for the 5-HT6 receptor (converted)
T2 construct: expressed in transfected cells
Method: as §1, §2, §3, §4

T2 sequence (P50406 whole entry): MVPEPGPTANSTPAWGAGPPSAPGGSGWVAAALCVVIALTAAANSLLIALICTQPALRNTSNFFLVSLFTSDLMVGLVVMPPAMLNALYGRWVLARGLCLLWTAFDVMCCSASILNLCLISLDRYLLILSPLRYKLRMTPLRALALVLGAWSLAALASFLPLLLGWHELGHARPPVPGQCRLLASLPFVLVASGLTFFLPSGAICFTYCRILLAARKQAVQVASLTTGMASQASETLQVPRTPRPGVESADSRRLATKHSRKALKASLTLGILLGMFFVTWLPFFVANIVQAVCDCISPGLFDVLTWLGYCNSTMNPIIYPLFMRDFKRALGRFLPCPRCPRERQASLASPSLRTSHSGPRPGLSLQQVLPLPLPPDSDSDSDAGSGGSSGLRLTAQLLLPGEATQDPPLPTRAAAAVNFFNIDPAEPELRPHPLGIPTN
T1 sequence (P28223 whole entry): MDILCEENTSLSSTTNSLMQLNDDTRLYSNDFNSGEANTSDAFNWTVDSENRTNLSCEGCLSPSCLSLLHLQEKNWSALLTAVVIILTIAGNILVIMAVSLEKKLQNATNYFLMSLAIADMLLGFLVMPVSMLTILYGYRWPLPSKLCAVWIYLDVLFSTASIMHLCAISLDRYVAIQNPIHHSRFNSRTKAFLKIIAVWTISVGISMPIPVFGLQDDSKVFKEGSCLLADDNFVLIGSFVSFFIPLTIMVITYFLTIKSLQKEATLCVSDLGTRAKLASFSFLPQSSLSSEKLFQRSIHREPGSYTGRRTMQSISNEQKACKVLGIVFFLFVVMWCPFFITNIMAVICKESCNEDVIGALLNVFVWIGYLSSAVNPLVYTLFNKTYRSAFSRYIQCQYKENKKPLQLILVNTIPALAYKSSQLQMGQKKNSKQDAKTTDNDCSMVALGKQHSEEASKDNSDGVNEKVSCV

`O=C(CC1=NCCN1)N1CCOc2cc(S(=O)(=O)c3ccccc3)ccc21` showed a melting point of 44 to 47 °C.

In the case of `O=C(CC1=NCCN1)N1CCOc2ccc(S(=O)(=O)c3ccccc3)cc21`, the melting point is reported as 114 to 116.1 °C.

Compound `O=C(C1CCNC1)N1CCOc2cc(S(=O)(=O)c3ccccc3)ccc21` (centres unmarked) (as salt: hydrochloride) has a melting point of 109.2 to 110.5 °C.

In the case of `CNCCC(=O)N1CCOc2ccc(S(=O)(=O)c3ccccc3)cc21` (as salt: hydrochloride), the melting point is reported as 208.3 to 214.7 °C.

Compound `CN(C)CC(=O)N1CCOc2ccc(S(=O)(=O)c3ccccc3)cc21` (as salt: hydrochloride) has a melting point of 199 to 203 °C.

Compound `O=C(C1CNC1)N1CCOc2cc(S(=O)(=O)c3ccccc3)ccc21` (as salt: hydrochloride) has a melting point of 182 to 186.6 °C.

With `O=S(=O)(c1ccccc1)c1ccc2c(c1)OCCN2C1CCNCC1` [Compound 22, 7-Benzenesulfonyl-4-piperidin-4-yl-3,4-dihydro-2H-benzo[1,4]oxazine] the Ki [1] was ~8.13 nM and the Ki [2] was ~0.105 nM.

With `NCCN1CCOc2cc(S(=O)(=O)c3ccccc3)ccc21` (as salt: HCl) the melting point was 261 to 265.1 °C.

Compound `N=C(N)NC(=O)N1CCOc2cc(S(=O)(=O)c3ccccc3)ccc21` has a melting point of 61.2 to 67.3 °C.

Compound `O=S(=O)(c1ccccc1)c1ccc2c(c1)OCCN2CCn1ccnc1` has a melting point of 61.5 to 64.4 °C.

`NCCNC(=O)N1CCOc2ccc(S(=O)(=O)c3ccccc3)cc21` showed a melting point of 172.4 to 181.3 °C.

For `CN(C)CCCCN1C(=O)COc2cc(S(=O)(=O)c3ccccc3)ccc21` (as salt: HCl), the melting point was 179 to 180 °C.

In the case of `CC1(C)CN(C2CCNCC2)c2ccc(S(=O)(=O)c3ccccc3)cc2O1` (as salt: hydrochloride), the melting point is reported as 284.9 to 296.3 °C.

Work on `O=C(CC1=NCCN1)N1CCOc2cc(S(=O)(=O)c3ccccc3)ccc21` (as salt: HCl) yielded a melting point of 202.3 to 203.6 °C.

`O=S(=O)(c1ccccc1)c1ccc2c(c1)N(CC1=NCCN1)CCO2` (as salt: HCl) showed a melting point of 114 to 116.1 °C.

In the case of `O=S(=O)(c1ccccc1)c1ccc2c(c1)OCCN2C1CCNC1` (centres unmarked) (as salt: hydrochloride), the melting point is reported as 122.8 to 127.6 °C.

`CN(C)CCCN1C(=O)COc2cc(S(=O)(=O)c3ccccc3)ccc21` (as salt: HCl) gave a melting point of 194 to 196.4 °C.

`O=C(C1CCCNC1)N1CCOc2cc(S(=O)(=O)c3ccccc3)ccc21` (centres unmarked) (as salt: hydrochloride) gave a melting point of 130.5 to 136.7 °C.

`O=C1COc2cc(S(=O)(=O)c3ccccc3)ccc2N1CC1=NCCN1` (as salt: HCl) showed a melting point of 113.7 to 116 °C.

`CNCC(=O)N1CCOc2ccc(S(=O)(=O)c3ccccc3)cc21` (as salt: hydrochloride) gave a melting point of 233 to 235.5 °C.

`NCCNC(=O)N1CCOc2cc(S(=O)(=O)c3ccccc3)ccc21` (as salt: hydrochloride) showed a melting point of 220.9 to 221.3 °C.

Work on `CNCCCN1CCOc2cc(S(=O)(=O)c3ccccc3)ccc21` (as salt: hydrochloride) yielded a melting point of 188.3 to 193.2 °C.

In the case of `CN(C)CCN1C(=O)COc2cc(S(=O)(=O)c3ccccc3)ccc21` (as salt: HCl), the melting point is reported as 232.9 to 235.3 °C.

Compound `N=C(N)NC(=O)N1CCOc2cc(S(=O)(=O)c3ccccc3)ccc21` (as salt: hydrochloride) has a melting point of 148.5 to 151.6 °C.

For `O=C1COc2ccc(S(=O)(=O)c3ccccc3)cc2N1CC1=NCCN1` (as salt: HCl), the melting point was 250 to 252 °C.

For `NCCN1CCOc2ccc(S(=O)(=O)c3ccccc3)cc21` (as salt: HCl), the melting point was 242.9 to 245.9 °C.

`NCCN1C(=O)COc2cc(S(=O)(=O)c3ccccc3)ccc21` (as salt: hydrochloride) gave a melting point of 206.9 to 209.1 °C.

`CC1(C)CN(c2ccncc2)c2ccc(S(=O)(=O)c3ccccc3)cc2O1` (as salt: hydrochloride) gave a melting point of 112.7 to 120.4 °C.
